Assay results published in ChEMBL document CHEMBL4118148, “Design, synthesis and cardiovascular evaluation of some aminoisopropanoloxy derivatives of xanthone” (Bioorg Med Chem, 2018).
Activity calls are given as the source filed them. The calls are words filed in the database; no cut-off is given here.

Tests used:
Blood = test: Anti-aggregative activity in Wistar rat whole blood assessed as inhibition of collagen/adrenaline-induced aggregation preincubated for 3 mins followed by collagen induction measured for 6 mins; format: functional, tissue-based
Rattus norvegicus [1] = test: Hypotensive activity in normotensive Wistar rat assessed as diastolic blood pressure at 1 mg/kg, iv measured after 30 mins (reference value: 88.4 to 122.7 mmHg); format: functional
Rattus norvegicus [2] = test: Hypotensive activity in normotensive Wistar rat assessed as systolic blood pressure at 1 mg/kg, iv measured after 10 mins (reference value: 122.4 to 156.5 mmHg); format: functional
Rattus norvegicus [3] = test: Cardiotoxicity in Wistar rat assessed as effect on PQ interval time at 1 mg/kg, iv measured after 5 mins (reference value: 56.8 +/- 1.8 ms); format: toxicity, organism-based; details: in vivo
Rattus norvegicus [4] = test: Hypotensive activity in normotensive Wistar rat assessed as systolic blood pressure at 1 mg/kg, iv measured after 30 mins (reference value: 122.4 to 156.5 mmHg); format: functional
[5] = target: Beta-1 adrenergic receptor (Rattus norvegicus, UniProt P18090); test: Displacement of [3H]-CGP-12177 from adrenergic beta1 receptor in Wistar rat cortex incubated for 60 mins by microbeta liquid scintillation counting analysis
Sequence of Beta-1 adrenergic receptor (P18090 whole entry): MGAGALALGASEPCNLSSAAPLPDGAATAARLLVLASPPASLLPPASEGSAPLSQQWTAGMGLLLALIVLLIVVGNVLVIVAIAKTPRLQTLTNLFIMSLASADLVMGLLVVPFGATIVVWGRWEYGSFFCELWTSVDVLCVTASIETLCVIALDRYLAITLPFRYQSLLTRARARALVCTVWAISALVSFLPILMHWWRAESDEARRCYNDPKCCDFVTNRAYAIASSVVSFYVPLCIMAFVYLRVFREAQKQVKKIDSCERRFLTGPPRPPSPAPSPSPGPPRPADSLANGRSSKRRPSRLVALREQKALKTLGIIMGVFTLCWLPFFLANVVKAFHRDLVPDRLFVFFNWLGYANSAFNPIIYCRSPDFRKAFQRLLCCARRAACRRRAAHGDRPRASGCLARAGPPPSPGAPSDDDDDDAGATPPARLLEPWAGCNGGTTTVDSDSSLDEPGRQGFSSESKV

Rattus norvegicus [6] = test: Antiarrhythmic activity in Wistar rat assessed as inhibition of adrenaline-induced premature ventricular extrasystoles administered iv 15 mins prior to adrenaline challenge; format: functional
Rattus norvegicus [7] = test: Cardiotoxicity in Wistar rat assessed as effect on QT interval time at 1 mg/kg, iv measured after 15 mins (reference value: 59.2 +/- 0.5 ms); format: toxicity, organism-based; details: in vivo, 0.25 h
Rattus norvegicus [8] = test: Hypotensive activity in normotensive Wistar rat assessed as systolic blood pressure at 1 mg/kg, iv measured after 5 mins (reference value: 122.4 to 156.5 mmHg); format: functional
Rattus norvegicus [9] = test: Hypotensive activity in normotensive Wistar rat assessed as systolic blood pressure at 1 mg/kg, iv measured after 60 mins (reference value: 122.4 to 156.5 mmHg); format: functional
Rattus norvegicus [10] = test: Hypotensive activity in normotensive Wistar rat assessed as diastolic blood pressure at 1 mg/kg, iv measured after 20 mins (reference value: 88.4 to 122.7 mmHg); format: functional
[11] = target: T1, Adrenergic receptor alpha-1 (Rattus norvegicus) (UniProt P15823+P23944+P43140); test: Displacement of [3H][…]prazosin from adrenergic alpha1 receptor in Wistar rat cortex at 10^-5 M incubated for 30 mins by microbeta liquid scintillation counting analysis
Rattus norvegicus [12] = test: Hypotensive activity in normotensive Wistar rat assessed as diastolic blood pressure at 1 mg/kg, iv measured after 60 mins (reference value: 88.4 to 122.7 mmHg); format: functional
Rattus norvegicus [13] = test: Hypotensive activity in normotensive Wistar rat assessed as diastolic blood pressure at 1 mg/kg, iv measured after 10 mins (reference value: 88.4 to 122.7 mmHg); format: functional
[14] = target: Beta-2 adrenergic receptor (Cavia porcellus, UniProt Q8K4Z4); test: Antagonist activity at adrenergic beta2 receptor in isolated guinea pig trachea assessed as inhibition of isoprenaline-induced bronchodilation incubated for 20 mins; format: functional; details: read-out: pA2 (converted)
Sequence of Beta-2 adrenergic receptor (Q8K4Z4 whole entry): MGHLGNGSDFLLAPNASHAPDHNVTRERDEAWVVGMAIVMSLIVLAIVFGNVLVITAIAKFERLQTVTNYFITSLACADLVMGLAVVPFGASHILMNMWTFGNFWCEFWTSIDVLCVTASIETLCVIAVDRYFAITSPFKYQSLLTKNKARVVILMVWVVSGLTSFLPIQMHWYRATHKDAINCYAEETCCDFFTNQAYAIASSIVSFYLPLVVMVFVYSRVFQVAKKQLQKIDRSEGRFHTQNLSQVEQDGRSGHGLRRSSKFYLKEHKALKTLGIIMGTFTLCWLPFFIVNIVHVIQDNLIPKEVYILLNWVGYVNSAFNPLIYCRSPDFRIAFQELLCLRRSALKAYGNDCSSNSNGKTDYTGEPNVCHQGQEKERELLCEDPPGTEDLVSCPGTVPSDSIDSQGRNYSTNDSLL

Rattus norvegicus [15] = test: Cardiotoxicity in Wistar rat assessed as effect on QT interval time at 1 mg/kg, iv measured after 1 min (reference value: 59.2 +/- 0.5 ms); format: toxicity, organism-based; details: in vivo
Rattus norvegicus [16] = test: Hypotensive activity in normotensive Wistar rat assessed as systolic blood pressure at 1 mg/kg, iv measured after 20 mins (reference value: 122.4 to 156.5 mmHg); format: functional
Rattus norvegicus [17] = test: Hypotensive activity in normotensive Wistar rat assessed as diastolic blood pressure at 1 mg/kg, iv measured after 5 mins (reference value: 88.4 to 122.7 mmHg); format: functional
Rattus norvegicus [18] = test: In vivo inhibition of beta adrenoceptor in Wistar rat assessed as reduction in isoprenaline-induced tachycardia at 5 mg/kg, iv administered as single dose 10 mins prior to isoprenaline injection; format: functional, organism-based
Rattus norvegicus [19] = test: Hypotensive activity in normotensive Wistar rat assessed as diastolic blood pressure at 5 mg/kg, iv measured after 60 mins (reference value: 86.5 to 119.4 mmHg); format: functional
Rattus norvegicus [20] = test: Hypotensive activity in normotensive Wistar rat assessed as reduction in systolic blood pressure at 1 mg/kg, iv measured over 30 mins relative to control; format: functional; parameters: scale not given: the % may be the effect or the level left
Rattus norvegicus [21] = test: Cardiotoxicity in Wistar rat assessed as effect on heart rate at 5 mg/kg, iv measured after 15 mins (reference value: 323 to 374.5 bpm); format: toxicity, organism-based; details: in vivo, 0.25 h
Rattus norvegicus [22] = test: Cardiotoxicity in Wistar rat assessed as effect on QT interval time at 5 mg/kg, iv measured after 15 mins (reference value: 57.7 to 61 ms); format: toxicity, organism-based; details: in vivo, 0.25 h
Rattus norvegicus [23] = test: Cardiotoxicity in Wistar rat assessed as effect on PQ interval time at 5 mg/kg, iv measured after 5 mins (reference value: 52 to 57 ms); format: toxicity, organism-based; details: in vivo
Rattus norvegicus [24] = test: Cardiotoxicity in Wistar rat assessed as effect on QTC interval time at 5 mg/kg, iv measured after 1 min (reference value: 136.7 to 146.2 ms); format: toxicity, organism-based; details: in vivo
[25] = target: T1, Adrenergic receptor alpha-1 (Rattus norvegicus); test: Antagonist activity at adrenergic alpha1 receptor in isolated Wistar rat aorta assessed as inhibition of […] contraction incubated for 20 mins
Rattus norvegicus [26] = test: Hypotensive activity in normotensive Wistar rat assessed as systolic blood pressure at 5 mg/kg, iv measured after 10 mins (reference value: 119.2 to 148.6 mmHg); format: functional
Rattus norvegicus [27] = test: Hypotensive activity in normotensive Wistar rat assessed as diastolic blood pressure at 5 mg/kg, iv measured after 20 mins (reference value: 86.5 to 119.4 mmHg); format: functional
Rattus norvegicus [28] = test: Hypotensive activity in normotensive Wistar rat assessed as reduction in diastolic blood pressure at 1 mg/kg, iv measured over 30 mins relative to control; format: functional; parameters: scale not given: the % may be the effect or the level left
Rattus norvegicus [29] = test: Cardiotoxicity in Wistar rat assessed as effect on heart rate at 5 mg/kg, iv measured after 1 min (reference value: 323 to 374.5 bpm); format: toxicity, organism-based; details: in vivo
Rattus norvegicus [30] = test: Cardiotoxicity in Wistar rat assessed as effect on PQ interval time at 5 mg/kg, iv measured after 1 min (reference value: 52 to 57 ms); format: toxicity, organism-based; details: in vivo
Rattus norvegicus [31] = test: Hypotensive activity in normotensive Wistar rat assessed as reduction in diastolic blood pressure at 1 mg/kg, iv measured over 10 mins relative to control; format: functional; parameters: scale not given: the % may be the effect or the level left

IC50 (Blood)	Ki [5]	Kb [14]	Compound	inhibition (Blood)	Activity (Rattus norvegicus [1])	Activity (Rattus norvegicus [2])	Activity (Rattus norvegicus [4])	ED50 (Rattus norvegicus [6])	Activity (Rattus norvegicus [8])	Activity (Rattus norvegicus [9])	Activity (Rattus norvegicus [10])	Activity (Rattus norvegicus [12])	Activity (Rattus norvegicus [13])	Activity (Rattus norvegicus [16])	Activity (Rattus norvegicus [17])	inhibition (Rattus norvegicus [18])	Activity (Rattus norvegicus [19])	Activity (Rattus norvegicus [20])	Activity (Rattus norvegicus [21])	Time (Rattus norvegicus [22])	also measured
82300 nM	5.4 nM	0.31 nM	CC(C)(C)NCC(O)COc1cccc2c(=O)c3ccccc3oc12.Cl (racemic)	Dose-dependent effect	100 mmHg	142.6 mmHg	128.2 mmHg	1.63 mg/kg	146.4 mmHg	123 mmHg	103.7 mmHg	96.7 mmHg	109.5 mmHg	131.6 mmHg	111 mmHg						Time (Rattus norvegicus [3]): 58 ms; Time (Rattus norvegicus [7]): 59.6 ms; Activity [11]: inactive; Time (Rattus norvegicus [15]): 59.2 ms
	852 nM	18.1 nM	COc1ccccc1OCCNCC(O)COc1cccc2c(=O)c3ccccc3oc12.Cl (racemic)		81.6 mmHg	114.8 mmHg	112.4 mmHg		119.6 mmHg	106.8 mmHg	84 mmHg	75.6 mmHg	82.8 mmHg	114.8 mmHg	85.4 mmHg	Active	80 mmHg	6 - 13%	308.7 bpm	63.3 ms	Time (Rattus norvegicus [23]): 58 ms; Time (Rattus norvegicus [24]): 157.2 ms; pKb [25]: 8.34; IC50 [5]: 178 nM; Activity (Rattus norvegicus [26]): 106.5 mmHg; Activity (Rattus norvegicus [27]): 71.5 mmHg; Activity (Rattus norvegicus [28]): 7 - 14%; Activity (Rattus norvegicus [29]): 307 bpm; Time (Rattus norvegicus [30]): 56 ms
44800 nM	359 nM	21.4 nM	COc1ccccc1CCNCC(O)COc1cccc2c(=O)c3ccccc3oc12.Cl (racemic)	Dose-dependent effect	107.7 mmHg	147 mmHg	135 mmHg	2.2 mg/kg	147.8 mmHg	126.3 mmHg	111.5 mmHg	101.2 mmHg	114.2 mmHg	141 mmHg	114.8 mmHg	Active	89.6 mmHg	5 - 11%	390.5 bpm	60 ms	Activity (Rattus norvegicus [31]): 7%; Time (Rattus norvegicus [23]): 52.5 ms; Time (Rattus norvegicus [24]): 149.3 ms; pKb [25]: 8.28; IC50 [5]: 426 nM; Activity (Rattus norvegicus [26]): 133.4 mmHg; Activity (Rattus norvegicus [27]): 98.8 mmHg; Activity (Rattus norvegicus [29]): 356 bpm; Time (Rattus norvegicus [30]): 52 ms
